Patent US20190225650A1, “PEPTIDOMIMETIC MACROCYCLES AND USE THEREOF IN REGULATING HIF1ALPHA” (AILERON THERAPEUTICS, INC., priority 2013, published 2019)
Bridge positions count the residues as written; N and C are the ends. Square brackets hold non-standard residues; d marks the D form. Peptide text beside a SMILES is read from it. R8 = C=CCCCCCC[C@@](C)(N)C(=O)O; S5 = C=CCCC[C@](C)(N)C(=O)O; Nle = CCCC[C@H](N)C(=O)O; Abu = CC[C@H](N)C(=O)O

Experiments:
[1] = test system: HRE-bla ME-180 cells; experiment: Reporter gene assay (HRE-bla ME-180 HIF reporter, GeneBLAzer); format: cell-based, human; conditions: for EC50: 24 hour normoxia
How it was run: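 A FRET β-lactamase readout of HIF transcription was used. After compound treatment in 0.3% DMSO/media under normoxic conditions, 20 μl of 6× LiveBLAzer-FRET B/G (CCF4-AM) substrate was added. Plates sat 3 hr at room temperature in the dark and were read at 409 Ex/460Em and 409Ex/530Em on a Synergy 2. Inhibition was compared against DMSO vehicle controls, with chetomin as positive control.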

[2] = test system: HRE-bla ME-180 cells; experiment: Cell proliferation assay (viability, MTT, 1% FBS); format: cell-based, human
How it was run: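 Viable cell number was measured with the CellTiter 96 (MTT) kit after compounds were applied for a 16 h normoxic (21% O2) pretreatment, followed by further normoxic or hypoxic (1% O2) culture. Cells: 2×10^4 ME-180 per well, Opti-MEM + 1% FBS, 0.5% DMSO vehicle.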

[3] = molecular target: T1, flag-tagged HIF1α (AA 786-826) / His6-tagged p300 (AA 323-423) complex (Homo sapiens, UniProt Q09472); experiment: HIF1α p300 displacement assay (TR FRET, +CHAPS); format: binding; conditions: read-out: IC50 (nM) (HIF1α_p300 Displacement + CHAPS)
T1 construct: His6-tagged p300 (AA 323-423); made in house; host or cells: E. coli (pETDuet vector)
How it was run: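 In this TR-FRET displacement format, peptides compete HIF1α C-terminal transactivation domain off p300-CH. They were preincubated 1 h at room temperature with 300 nM complex in HEPES pH 7.4/NaCl buffer with 7.5 mM CHAPS and 1 mM DTT. Anti-His-D2 (4 nM) and anti-Flag-K (0.5 μM) followed for 2 h, and a one-site fit of the fluorescence ratio gave IC50.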

Row | SMILES | 18 h Avg % max inhibition at top conc (HIF Rptr-24 hrs normoxia) (μM) [1] | EC50 [1] | Viability 1% FBS AVG (MTT V3-24 hr Normoxia) (μM) [2] | IC50 [3]
1 | CCCC[C@H](NC(=O)[C@]1(C)CCCC=CCCC[C@](C)(NC(=O)[C@H](CCCC)NC(=O)[C@H](CC(C)C)NC(=O)[C@@H](NC(=O)[C@H](CCC(=O)O)NC(=O)[C@H](C)NC(=O)[C@H](CC(=O)O)NC(=O)[C@@H](NC(=O)[C@H](CC(N)=O)NC(=O)[C@@H](NC(=O)[C@]2(C)CCCC=CCCCCCC[C@@](C)(NC(=O)[C@H](CCC(=O)O)NC(=O)CNC(=O)[C@H](CCC(N)=O)NC(=O)[C@H](CC(C)C)NC(=O)[C@H](CC(C)C)NC(C)=O)C(=O)N[C@@H](CC(C)C)C(=O)N[C@@H](CC(C)C)C(=O)N[C@@H](CCCNC(=N)N)C(=O)N[C@@H](C)C(=O)N[C@@H](CC(C)C)C(=O)N[C@@H](CC(=O)O)C(=O)N2)C(C)C)[C@@H](C)CC)C(C)C)C(=O)N[C@@H](CC(C)C)C(=O)N[C@@H](C(C)C)C(=O)N[C@@H]([C@@H](C)CC)C(=O)N1)C(N)=O [SP-346] (Ac-LLQGE[R8]LLRALD[S5]VNIDAEVL[Nle][S5]LVI[S5][Nle]-NH2; staple 6-13, 23-27) | ++ (≤10 but <25: ++) | > 30 µM | ++++ (≥30: ++++) | ≤ 200 nM
2 | CCCC[C@H](NC(=O)[C@H](CC(C)C)NC(=O)[C@@H](NC(=O)[C@H](CCC(=O)O)NC(=O)[C@H](CCC(=O)O)NC(=O)[C@H](CC(=O)O)NC(=O)[C@@H](NC(=O)[C@H](CC(N)=O)NC(=O)[C@@H](NC(=O)[C@]1(C)CCCC=CCCC[C@](C)(NC(=O)[C@H](CC(C)C)NC(=O)[C@H](CC(C)C)NC(=O)[C@H](CCC(=O)O)NC(=O)[C@H](CCC(=O)O)NC(=O)CNC(=O)[C@H](CCC(N)=O)NC(=O)[C@H](CC(C)C)NC(=O)[C@H](CC(C)C)NC(C)=O)C(=O)N[C@@H](C)C(=O)N[C@@H](CC(C)C)C(=O)N[C@@H](CC(=O)O)C(=O)N1)C(C)C)[C@@H](C)CC)C(C)C)C(=O)N[C@@]1(C)CCCC=CCCC[C@@](C)(C(=O)N[C@@H](CCCC)C(=O)NCC(N)=O)NC(=O)[C@H]([C@@H](C)CC)NC(=O)[C@H](C(C)C)NC(=O)[C@H](CC(C)C)NC1=O [SP-340] (Ac-LLQGEELL[S5]ALD[S5]VNIDEEVL[Nle][S5]LVI[S5][Nle]G-NH2; staple 9-13, 23-27) | ++ (≤10 but <25: ++) | > 30 µM | ++++ (≥30: ++++) | > 700 nM
3 | CC[C@H](C)[C@H](NC(=O)[C@H](Cc1ccccc1)NC(C)=O)C(=O)N[C@@H](CC(=O)O)C(=O)N[C@@H](CCC(=O)O)C(=O)N[C@@]1(C)CCCC=CCCC[C@@](C)(C(=O)N[C@@H](CC(C)C)C(=O)N[C@H](C(=O)N[C@H](C(=O)N[C@@H](CCC(=O)O)C(=O)N[C@@H](CCSC)C(=O)N[C@@H](C)C(=O)N[C@@H](CC(C)C)C(N)=O)[C@@H](C)CC)C(C)C)NC(=O)[C@H](CCSC)NC(=O)[C@H](CC(C)C)NC(=O)[C@H](C(C)C)NC1=O [SP-110] (Ac-FIDE[S5]VLM[S5]LVIEMAL-NH2; staple 5-9) | +++ (≤25 but <50: +++) | > 30 µM | ++++ (≥30: ++++) | 400 to 700 nM
4 | CCCC[C@H](NC(=O)[C@H](CCC(=O)O)NC(=O)[C@@H](NC(=O)[C@@H](NC(=O)[C@H](CC(C)C)NC(=O)[C@]1(C)CCCC=CCCC[C@](C)(NC(=O)[C@H](CCC(=O)O)NC(=O)[C@H](CC(=O)O)NC(=O)[C@@H](NC(=O)[C@H](Cc2ccccc2)NC(=O)[C@H](CCCCN)NC(C)=O)[C@@H](C)CC)C(=O)N[C@@H](C(C)C)C(=O)N[C@@H](CC(C)C)C(=O)N[C@@H](CCCC)C(=O)N1)C(C)C)[C@@H](C)CC)C(=O)N[C@@H](C)C(=O)N[C@@H](CC(C)C)C(N)=O [SP-134] (Ac-KFIDE[S5]VL[Nle][S5]LVIE[Nle]AL-NH2; staple 6-10) | +++ (≤25 but <50: +++) | > 30 µM | ++++ (≥30: ++++) | 200 to 400 nM
5 | CC[C@@H]1NC(=O)[C@H](CC(=O)O)NC(=O)[C@H](Cc2ccc(O)cc2)NC(=O)[C@@](C)(NC(=O)[C@@H](NC(=O)[C@H](CC(C)C)NC(=O)[C@H](CCC(N)=O)NC(=O)[C@@H]2CCCN2C(=O)[C@H](CC(C)C)NC(=O)[C@H](CCC(=O)O)NC(=O)[C@H](CCCCN)NC(=O)[C@@H](NC(=O)[C@H](CCCNC(=N)N)NC(=O)[C@H](CC(=O)O)NC(=O)[C@H](CC(C)C)NC(=O)CNC(=O)[C@H](CCSC)NC(=O)[C@H](CCC(=O)O)NC(=O)[C@]2(C)CCCC=CCCCCCC[C@@](C)(NC(=O)[C@H](CCC(=O)O)NC(=O)[C@H](CC(=O)O)NC(=O)[C@@H](NC(=O)[C@H](Cc3ccccc3)NC(C)=O)[C@@H](C)CC)C(=O)N[C@@H](C(C)C)C(=O)N[C@@H](CC(C)C)C(=O)N[C@@H](CCSC)C(=O)N[C@@H](CO)C(=O)N[C@@H](CC(C)C)C(=O)N[C@@H](C(C)C)C(=O)N2)[C@@H](C)CC)[C@@H](C)O)CCCC=CCCC[C@@](C)(C(=O)N[C@H](C(=O)N[C@@H](CC(N)=O)C(=O)N[C@@H](C)C(N)=O)C(C)C)NC1=O [SP-323] (Ac-FIDE[R8]VLMSLV[S5]EMGLDRIKELPQLT[S5]YD[Abu][S5]VNA-NH2; staple 5-12, 27-31) | + (<10: +) | > 30 µM | ++++ (≥30: ++++) | 200 to 400 nM
6 | CCCC[C@H](NC(=O)[C@H](CCC(=O)O)NC(=O)[C@@H](NC(=O)[C@@H](NC(=O)[C@H](CC(C)C)NC(=O)[C@]1(C)CCCC=CCCC[C@](C)(NC(=O)[C@H](CCC(=O)O)NC(=O)[C@H](CC(=O)O)NC(=O)[C@@H](NC(=O)[C@H](CC(N)=O)NC(=O)[C@@H](NC(=O)[C@H](CCC(N)=O)NC(=O)[C@H](CC(=O)O)NC(=O)[C@H](CC(C)C)NC(=O)[C@H](C)NC(=O)[C@H](CCCNC(=N)N)NC(=O)[C@H](CC(C)C)NC(=O)[C@H](CC(C)C)NC(=O)[C@H](CCC(=O)O)NC(=O)[C@H](CCC(=O)O)NC(=O)CNC(=O)[C@H](CCC(N)=O)NC(=O)[C@H](CC(C)C)NC(=O)[C@H](CC(C)C)NC(C)=O)C(C)C)[C@@H](C)CC)C(=O)N[C@@H](C(C)C)C(=O)N[C@@H](CC(C)C)C(=O)N[C@@H](CCCC)C(=O)N1)C(C)C)[C@@H](C)CC)C(N)=O [SP-334] (Ac-LLQGEELLRALDQVNIDE[S5]VL[Nle][S5]LVIE[Nle]-NH2; staple 19-23) | + (<10: +) | > 30 µM | ++++ (≥30: ++++) | 200 to 400 nM
7 | CCCC[C@H](NC(=O)[C@H](CC(C)C)NC(=O)[C@@H](NC(=O)[C@H](CCC(=O)O)NC(=O)[C@H](CCC(=O)O)NC(=O)[C@H](CC(=O)O)NC(=O)[C@@H](NC(=O)[C@H](CC(N)=O)NC(=O)[C@@H](NC(=O)[C@]1(C)CCCC=CCCCCCC[C@@](C)(NC(=O)[C@H](CCC(=O)O)NC(=O)CNC(=O)[C@H](CCC(N)=O)NC(=O)[C@H](CC(C)C)NC(=O)[C@H](CC(C)C)NC(C)=O)C(=O)N[C@@H](CC(C)C)C(=O)N[C@@H](CC(C)C)C(=O)N[C@@H](CCCNC(=N)N)C(=O)N[C@@H](C)C(=O)N[C@@H](CC(C)C)C(=O)N[C@@H](CC(=O)O)C(=O)N1)C(C)C)[C@@H](C)CC)C(C)C)C(=O)N[C@@]1(C)CCCC=CCCC[C@@](C)(C(=O)N[C@@H](CCCC)C(=O)NCC(N)=O)NC(=O)[C@H]([C@@H](C)CC)NC(=O)[C@H](C(C)C)NC(=O)[C@H](CC(C)C)NC1=O [SP-309] (Ac-LLQGE[R8]LLRALD[S5]VNIDEEVL[Nle][S5]LVI[S5][Nle]G-NH2; staple 6-13, 23-27) | + (<10: +) | > 30 µM | ++++ (≥30: ++++) | 200 to 400 nM
8 | CC[C@H](C)[C@H](NC(=O)[C@H](CCCNC(=N)N)NC(=O)[C@H](CC(N)=O)NC(=O)[C@H](CC(C)C)NC(=O)[C@H](C)NC(=O)[C@H](CCSC)NC(=O)[C@]1(C)CCCC=CCCC[C@](C)(NC(=O)[C@H](CCSC)NC(=O)[C@H](CC(C)C)NC(=O)[C@@H](NC(=O)[C@H](C)NC(=O)[C@H](CCC(N)=O)NC(=O)[C@H](CC(=O)O)NC(=O)[C@@H](NC(=O)[C@H](Cc2ccccc2)NC(C)=O)[C@@H](C)CC)C(C)C)C(=O)N[C@@H](CC(C)C)C(=O)N[C@@H](C(C)C)C(=O)N[C@@H]([C@@H](C)CC)C(=O)N1)C(N)=O [SP-270] (Ac-FIDQAVLM[S5]LVI[S5]MALNRI-NH2; staple 9-13) | ++ (≤10 but <25: ++) | > 30 µM | ++++ (≥30: ++++) | > 700 nM
